The structures appear in SMILES notation.

Common to all, as to assay type: ADME, cell-based
Holding throughout (conditions): human

In series [1] the test system is A549. In words: Metabolic stability in A549 cells assessed as rate of 6-thioguanine production in anoxic condition.
The test system of series [2] is A549. Kind of series: Metabolic stability in A549 cells assessed as rate of prodrug loss in anoxic condition.
In series [3] the test system is A549. Kind of series: Metabolic stability in A549 cells assessed as rate of prodrug loss in aerobic condition.
Series [4] concerns A549. In words: Metabolic stability in A549 cells assessed as rate of 6-thioguanine production in aerobic condition.

`Nc1nc(SCc2ccc([N+](=O)[O-])cc2)c2nc[nH]c2n1`: the Activity was 0 nM/min with A549 [1], 39 nM/min in the series on A549 [2], 0 nM/min in the series with A549 [3] and 1.7 nM/min in the series on A549 [4].
For the compound `CC(C)(Sc1nc(N)nc2[nH]cnc12)c1ccc([N+](=O)[O-])cc1`, the Activity in the series with A549 [1] amounted to 72 nM/min; in the series with A549 [2] it was 100 nM/min; in the series with A549 [3], 9.5 nM/min; in the series with A549 [4] it was 1.7 nM/min.
